Measurements: patent US7879900B2, “3-aminocarbazole compounds, pharmaceutical composition containing the same and method for the preparation thereof” (Aziende Chimiche Riunite Angelini Francesco A.C.R.A.F. …, priority 2005, dated 2011)

Legend:
production of PGE2 = test: Inhibition of PGE2 production in IL-1β-stimulated A549 cells (EIA); format: cell-based; settings: Homo sapiens, IL-1β 1 ng/ml, 18 hours; for inhibition at 10 µM: compound 10 μM, na = not active at the experimental concentration; for IC50: negative logarithm of IC50, read-out: pIC50 PGE2 (converted)
Excerpt: (§1) This test allows evaluation of the inhibitory capability on the production of the PGE2 prostaglandins and the selectivity relative to the production of the PGF2α prostaglandins.
(§2) The cell line A549, human pulmonary adenocarcinoma, was used, which is particularly sensitive to stimulation with pro-inflammatory cyokines, for instance IL-1β, and, in response to this stimulation, is particularly active in the production and release of two prostanoids: PGE2 and PGF2α (Thoren S. Jakobsson P-J, 2000).
(§3) The cells were stimulated with IL-1β, (1 ng/ml) and simultaneously treated with the test compound for 18 hours in an appropriate culture medium (DMEM—Dulbecco's Modified Eagle's Medium) supplemented with 5% foetal calf serum and L-glutamine (4 mM final) in an incubator at 37° C. and at a CO2 concentration of 5%.
(§4) After the incubation, the amount of PGE2 and PGF2α produced and released into the supernatant were assayed using an EIA kit (produced and sold by Cayman Chemicals, Ann Arbor, Mich., USA).
(§5) The comparative compounds used were indomethacin (Sigma-Aldrich), a non-steroidal anti-inflammatory drug that inhibits in equal measure both PGE2 and PGF2α, and also the compounds of formula (I) in which R1=CH3CH2, R2=OH, R3=R4=R5=R6=X=Y=H (comparative compound A) and R1=CH3CH2, R2=SCH3, R3=R4=R5=R6=X=Y=H (comparative compound B). […]

production of PGF2α = test: Inhibition of PGF2α production in IL-1β-stimulated A549 cells (EIA); format: cell-based; settings: Homo sapiens, IL-1β 1 ng/ml, 18 hours; for inhibition at 10 µM: compound 10 μM, na = not active at the experimental concentration; for IC50: negative logarithm of IC50, read-out: pIC50 PGF2α (converted)
Excerpt: as §1, §2, §3, §4, §5

production of PGI2 = test: Test on human primary endothelial cells (HUVEC): inhibition of PGI2 production; format: cell-based; settings: for Inhibition (%) of PGI2: compound at LogM −5, relative to control
Procedure: This test allows evaluation of the capability of the compounds of the invention to inhibit the production of PGI2.
The absence of inhibitory activity on this prostanoid can ensure maintenance of the vasoprotective action of the PGI2 prostanoids and provide useful pharmacological information regarding the absence of adverse side effects on the endothelium.
The action of the test compounds is evaluated in HUVEC cells under basal conditions and conditions of stimulation (J. Immunol. 1989, Jun. 1; 142(11): 3993-9).
The results are given as a percentage of inhibition relative to the control enzymatic activity.
Indomethacin is used as reference compound.

In the case of `CCn1c2ccccc2c2cc(NC(=O)c3ccccc3O)ccc21` [Compound A, N-(9-ethyl-9H-carbazol-3-yl)-2-hydroxybenzamide, reference compound], the inhibition at 10 µM (production of PGE2) is reported as 88% and the inhibition at 10 µM (production of PGF2α) is reported as 84%.
Work on `CCn1c2ccccc2c2cc(NC(=O)c3c(C)cccc3C)ccc21` [Compound 5, N-(9-ethyl-9H-carbazol-3-yl)-2,6-dimethylbenzamide] yielded an inhibition at 10 µM (production of PGE2) of 93%, an inhibition at 10 µM (production of PGF2α) of 60% and a melting point of 192 to 193 °C.
In the case of `O=C(Nc1ccc2c(c1)c1ccccc1n2Cc1ccccc1)c1ccccc1Cl` [Compound 3, 2-chloro-N-[9-(phenylmethyl)-9H-carbazol-3-yl]benzamide], the inhibition at 10 µM (production of PGE2) is reported as 86%, the IC50 (production of PGE2) is reported as 1260 nM and the inhibition at 10 µM (production of PGF2α) is reported as 7%. For the same molecule, the IC50 (production of PGF2α) was greater than 100000 nM.
Molecule `Cn1c2ccccc2c2cc(NC(=O)c3ccccc3Cl)ccc21` [Compound 1, 2-chloro-N-(9-methyl-9H-carbazol-3-yl)benzamide] has an inhibition at 10 µM (production of PGE2) of 59%, an inhibition at 10 µM (production of PGF2α) of 27% and a melting point of 206 °C.
For `CC(C)n1c2ccccc2c2cc(NC(=O)c3ccccc3Cl)ccc21` [Compound 2, 2-chloro-N-[9-(1-methylethyl)-9H-carbazol-3-yl]benzamide], the inhibition at 10 µM (production of PGE2) was 90%, the IC50 (production of PGE2) was 794 nM and the inhibition at 10 µM (production of PGF2α) was 66%. The IC50 (production of PGF2α) was 10000 nM, the “Inhibition (%) of PGI2” value (production of PGI2) was 31% and the melting point was 195 °C.
Work on `COc1ccc2c(c1)c(CC(=O)O)c(C)n2C(=O)c1ccc(Cl)cc1` [indomethacin, reference compound] yielded an inhibition at 10 µM (production of PGE2) of 100%, an IC50 (production of PGE2) of 5.01 nM and an inhibition at 10 µM (production of PGF2α) of 100%. The IC50 (production of PGF2α) was 2.51 nM and the IC50 (production of PGI2; Homo sapiens, PGI2, printed as a negative logarithmic figure, read-out: IC50 (comparison compound) (converted)) was 10 nM.
For `CCn1c2ccccc2c2cc(NC(=O)c3ccccc3C(F)(F)F)ccc21` [Compound 4, N-(9-ethyl-9H-carbazol-3-yl)-2-(trifluoromethyl)benzamide], the inhibition at 10 µM (production of PGE2) was 67%, the IC50 (production of PGE2) was 631 nM and the inhibition at 10 µM (production of PGF2α) was 0%. For the same molecule, the IC50 (production of PGF2α) was 100000 nM, the “Inhibition (%) of PGI2” value (production of PGI2) was 21% and the melting point was 206 to 207 °C.
